Laboratory results published in US9310353B2, “Method for evaluating bioavailable zinc” (The Procter & Gamble Company, priority 2014, dated 2016).
pKd: −log10 of the molar value. Marks after values point to notes of the source that are not given here.

Tests used:
[1] = system: TR146 cells; assay: Screening of Zn indicators by Zn uptake into TR146 cells (FLIPR); type: cell-based; settings: Zn indicators screened using TR146 cells
Experimental: As with most metal ions, the choice of indicator is dependent on the cell type, ion channel, and metal specificity.
(§1) To screen the Zn indicators, measurement of Zn uptake into TR146 cells was done using a FLIPR (Fluorescent Imaging Plate Reader) assay. The assay was established using a cell membrane permeable version of Zn-indicator, FluoZin-3 AM (Life Technologies, Grand Island, N.Y.). TR146 cells were grown to confluency in 15 ml growth medium [high glucose DMEM (Dulbecco's Modification of Eagle's Medium) supplemented with 10% FBS (fetal bovine serum), 100 units/ml penicillin and 100 μg/ml streptomycin in a 75 cm^2 flask for 3 days at 37° C. in a mammalian cell culture incubator set at 5% CO2. […] FluoZin-3 AM is a fluorescent dye used for quantifying intracellular Zn concentrations in the 1 to 100 nM to range. […] The pelleted cells were re-suspended in 10 ml assay buffer and 90 μl aliquots (˜50,000 cells) per well delivered to a 96-well assay plate and the plate was placed into a fluorometric imaging plate reader (FLIPR384 from Molecular Devices, Sunnyvale, Calif.) and basal fluorescence recorded (excitation wave length 494 nm and emission wave length 516 nm). Then Zn salt (for example Zn-lactate) was added and the increase in fluorescence was recorded for 5 minutes. […]

[2] = read-out: Affinity Kd (Zn^2+); cited from earlier work
[3] = system: TR146 cells; assay: Chelant effects on Zn flux via TR146 measurements (FLIPR); type: cell-based; settings: relative to the flux of the Zn lactate control; for 5 micro M Chelant Control / 50 micro M Chelant Control: chelant alone, no Zn
Excerpt: These combinations were then placed into growth media and measurement of Zn uptake into TR146 cells was done using a FLIPR (Fluorescent Imaging Plate Reader) assay, as described in EXAMPLE 2.

[4] = system: TR146 cells; assay: Effects of cationic polymers and dentifrice binders on uptake of zinc lactate by TR146 cells; type: cell-based; settings: 50 μM Zn Lactate alone (reference)
Excerpt: After centrifugation, a pellet of cells was formed in the bottom of the tube separating them from the supernatant solution.

[5] = system: TR146 cells; assay: Bioavailability of Zn from formulated dentifrices and rinses, Zn uptake by TR146 cells (FLIPR); type: cell-based; settings: 0.01% Dentifrices A-D tested on the TR146 cells; Zn Lactate Control = 100%
Experimental: as §1, with “Measurement of” for “To screen the Zn indicators, measurement of”, “of Zn dye,” for “of Zn-indicator,”, “grown” for “grown to confluency”, “CO2. Cells were detached with addition of 10 ml of PBS (phosphate buffered saline) and gentle hand shaking, and transferred to a 50 ml tube and centrifuged at 850 rpm for 3 minutes to remove PBS.” for “CO2.”, “plate is” for “plate was”

[6] = system: TR146 cells; assay: Polyquats blocking Zn uptake into TR146 cells (FLIPR); type: cell-based; settings: Control Zn lactate
Experimental: Measurement of Zn uptake into TR146 cells was done using a FLIPR (Fluorescent Imaging Plate Reader) assay. The assay was established using a cell membrane permeable version of Zn dye, FluoZin-3 AM (Life Technologies, Grand Island, N.Y.). TR146 cells were grown in 15 ml growth medium [high glucose DMEM (Dulbecco's Modification of Eagle's Medium) supplemented with 10% FBS (fetal bovine serum), 100 units/ml penicillin and 100 μg/ml streptomycin in a 75 cm^2 flask for 3 days at 37° C. in a mammalian cell culture incubator set at 5% CO2. Cells were detached with addition of 10 ml of PBS (phosphate buffered saline) and gentle hand shaking, and transferred to a 50 ml tube and centrifuged at 850 rpm for 3 minutes to remove PBS. After centrifugation, a pellet of cells was formed in the bottom of the tube separating them from the supernatant solution. The supernatant was discarded and the cell pellet suspended in 1 ml of fresh growth medium to which 5 μl (12.5 μg) of FluoZin-3 AM Zn indicator was added and incubated for 30 minutes with gentle shaking. FluoZin-3 AM is a fluorescent dye used for quantifying intracellular Zn concentrations in the 1 to 100 nM to range. At the end of the 30 minutes, 45 ml of assay buffer [1×HBSS (Hank's Balanced Salt Solution), 20 mM HEPES (4-(2-Hydroxyethyl)-1-piperazineethanesulfonic acid)] was added to wash the cells and the resulting combination was then centrifuged at 850 rpm for 3 minutes to remove excess buffer and FluoZin-3 AM Zn indicator. The pelleted cells were re-suspended in 10 ml assay buffer and 90 μl aliquots (˜50,000 cells) per well delivered to a 96-well assay plate and the plate is placed into a fluorometric imaging plate reader (FLIPR384 from Molecular Devices, Sunnyvale, Calif.) and basal fluorescence recorded (excitation wave length 494 nm and emission wave length 516 nm). Then Zn salt (for example Zn-lactate) was added and the increase in fluorescence was recorded for 5 minutes. Zn-flux observed with different Zn salts with Zn-lactate value as reference (100%) is shown below in TABLE 2. […]

[7] = system: TR146 cells; assay: Flux of Zn salts in TR146 cells (FLIPR, FluoZin-3 AM); type: cell-based; settings: for % of Zn Lactate Flux: Zn-lactate = 100%
Experimental: Measurement of Zn uptake into TR146 cells was done using a FLIPR (Fluorescent Imaging Plate Reader) assay. The assay was established using a cell membrane permeable version of Zn dye, FluoZin-3 AM (Life Technologies, Grand Island, N.Y.). TR146 cells were grown in 15 ml growth medium [high glucose DMEM (Dulbecco's Modification of Eagle's Medium) supplemented with 10% FBS (fetal bovine serum), 100 units/ml penicillin and 100 μg/ml streptomycin in a 75 cm^2 flask for 3 days at 37° C. in a mammalian cell culture incubator set at 5% CO2. Cells were detached with addition of 10 ml of PBS (phosphate buffered saline) and gentle hand shaking, and transferred to a 50 ml tube and centrifuged at 850 rpm for 3 minutes to remove PBS. After centrifugation, a pellet of cells was formed in the bottom of the tube separating them from the supernatant solution. The supernatant was discarded and the cell pellet suspended in 1 ml of fresh growth medium to which 5 μl (12.5 μg) of FluoZin-3 AM Zn indicator was added and incubated for 30 minutes with gentle shaking. FluoZin-3 AM is a fluorescent dye used for quantifying intracellular Zn concentrations in the 1 to 100 nM to range. At the end of the 30 minutes, 45 ml of assay buffer [1×HBSS (Hank's Balanced Salt Solution), 20 mM HEPES (4-(2-Hydroxyethyl)-1-piperazineethanesulfonic acid)] was added to wash the cells and the resulting combination was then centrifuged at 850 rpm for 3 minutes to remove excess buffer and FluoZin-3 AM Zn indicator. The pelleted cells were re-suspended in 10 ml assay buffer and 90 μl aliquots (˜50,000 cells) per well delivered to a 96-well assay plate and the plate is placed into a fluorometric imaging plate reader (FLIPR384 from Molecular Devices, Sunnyvale, Calif.) and basal fluorescence recorded (excitation wave length 494 nm and emission wave length 516 nm). Then Zn salt (for example Zn-lactate) was added and the increase in fluorescence was recorded for 5 minutes. Zn-flux observed with different Zn salts with Zn-lactate value as reference (100%) is shown below in TABLE 2.

[8] = system: TR146 cells; assay: Competitive inhibition of Zn flux from zinc chloride by amine polymers in TR146 cells; type: cell-based; settings: ZnCl2 140 uM alone (reference)
Experimental: as §1, with “Measurement of” for “To screen the Zn indicators, measurement of”, “of Zn dye,” for “of Zn-indicator,”, “grown” for “grown to confluency”, “CO2. Cells were detached with addition of 10 ml of PBS (phosphate buffered saline) and gentle hand shaking, and transferred to a 50 ml tube and centrifuged at 850 rpm for 3 minutes to remove PBS.” for “CO2.”, “plate is” for “plate was”

[9] = Zn salt concentration Saturated

COc1ccc(N(CC(=O)O)CC(=O)O)c(OCCOc2cc(-c3c4cc(F)c(=O)cc-4oc4cc(O)c(F)cc34)ccc2NCC(=O)O)c1 [FluoZin-3]
affinity for the flux of Zn into the TR146 cell line [1]: most affinity for the flux of Zn into the TR146 cell line | pKd [2]: 7.82

O=P(O)(O)O[C@H]1[C@H](OP(=O)(O)O)[C@@H](OP(=O)(O)O)[C@H](OP(=O)(O)O)[C@@H](OP(=O)(O)O)[C@H]1OP(=O)(O)O [Phytic acid]
5 micro M Chelant Control [3]: 0.00% | 50 micro M Chelant Control [3]: 0.00% | Zn flux, 5 micro M Chelant + 5 micro M Zn lactate [3]: 20.07% | Zn flux, 50 micro M Chelant + 50 micro M Zn lactate [3]: 33.87%

O=C([O-])[C@H](O)[C@@H](O)[C@H](O)[C@H](O)CO.[Na+] [Sodium D-gluconate]
5 micro M Chelant Control [3]: 1.51% | 50 micro M Chelant Control [3]: 0.00% | Zn flux, 5 micro M Chelant + 5 micro M Zn lactate [3]: 101.31% | Zn flux, 50 micro M Chelant + 50 micro M Zn lactate [3]: 112.99%

O=P1([O-])OP(=O)([O-])OP(=O)([O-])OP(=O)([O-])OP(=O)([O-])OP(=O)([O-])O1.[Na+].[Na+].[Na+].[Na+].[Na+].[Na+] [Sodium Hexametaphosphate]
50 micro M Chelant Control [3]: 0.00% | Zn flux, 5 micro M Chelant + 5 micro M Zn lactate [3]: 105.02% | Zn flux, 50 micro M Chelant + 50 micro M Zn lactate [3]: 63.81%*

O=P([O-])(O)OP(=O)([O-])O.[Na+].[Na+] [Sodium acid pyrophosphate]
5 micro M Chelant Control [3]: 0.00% | 50 micro M Chelant Control [3]: 0.00% | Zn flux, 5 micro M Chelant + 5 micro M Zn lactate [3]: 82.87% | Zn flux, 50 micro M Chelant + 50 micro M Zn lactate [3]: 0.00% | Zn flux, 50 micro M Chelant + 50 micro M Zn lactate ([3]; listed as sodium acid pyrophosphate): did not allow for any measureable levels of Zn to be detected

O=C([O-])CC(O)(CC(=O)[O-])C(=O)[O-].[Na+].[Na+].[Na+] [Sodium citrate]
5 micro M Chelant Control [3]: 0.00% | 50 micro M Chelant Control [3]: 0.00% | Zn flux, 5 micro M Chelant + 5 micro M Zn lactate [3]: 104.83% | Zn flux, 50 micro M Chelant + 50 micro M Zn lactate [3]: 43.63%

O=P(O)(O)OP(=O)(O)OP(=O)(O)O [Sodium tripolyphosphate]
5 micro M Chelant Control [3]: 0.00% | 50 micro M Chelant Control [3]: 0.00% | Zn flux, 5 micro M Chelant + 5 micro M Zn lactate [3]: 92.99% | Zn flux, 50 micro M Chelant + 50 micro M Zn lactate [3]: 0.00% | Zn flux, 50 micro M Chelant + 50 micro M Zn lactate ([3]; listed as sodium tripolyphosphate): did not allow for any measureable levels of Zn to be detected

CC(O)C(=O)[O-].CC(O)C(=O)[O-].[Zn+2] (centres unmarked) [Zn Lactate]
Zn flux, Zn Only ([3]; No chelant, 50 micro M Zn Lactate): 100%* | Fluorescence Units (percentage of zinc lactate) [4]: 100% | % of Zn Lactate Control (% Zn uptake by TR146 cells) [5]: 100% | Fluorescent Counts with no Zn ([6]; no quat): 24.5 | Fluorescent counts with Zn ([6]; no quat): 1774.8 | % Reduction compared to Zn control ([6]; no quat (reference)): 0%

CC(=O)[O-].CC(=O)[O-].[Zn+2] [ZnAcetate]
Fluorescence Unit ([7]; Zn salt concentration 10 uM): 48547.79 | % of Zn Lactate Flux ([7]; Zn salt concentration 10 uM): 102.72%

[Cl-].[Cl-].[Zn+2] [ZnCl2]
Fluorescence Unit ([7]; Zn salt concentration 1 mM): 47853.41 | % of Zn Lactate Flux ([7]; Zn salt concentration 1 mM): 101.25% | Zn Flux as a percentage of the Zn Chloride Control [8]: 100%

NCC(=O)[O-].NCC(=O)[O-].[Zn+2] [ZnGlycinate]
Fluorescence Unit ([7]; Zn salt concentration 4.40%): 41086.61 | % of Zn Lactate Flux ([7]; Zn salt concentration 4.40% (206 mM)): 86.93%

O=C([O-])C(=O)[O-].[Zn+2] [ZnOxalate]
Fluorescence Unit [7, 9]: 55389.93 | % of Zn Lactate Flux [7, 9]: 117.2%

[O-2].[Zn+2] [ZnOxide]
Fluorescence Unit [7, 9]: 50391.21 | % of Zn Lactate Flux [7, 9]: 106.62%

O=P([O-])([O-])[O-].O=P([O-])([O-])[O-].[Zn+2].[Zn+2].[Zn+2] [ZnPhosphate]
Fluorescence Unit [7, 9]: 49686.65 | % of Zn Lactate Flux [7, 9]: 105.13%

[O-][n+]1ccccc1[S-].[O-][n+]1ccccc1[S-].[Zn+2] [ZnPyrithione]
Fluorescence Unit ([7]; Zn salt concentration 10 mM): 50467.87 | % of Zn Lactate Flux ([7]; Zn salt concentration 10 mM): 106.78%

O=S(=O)([O-])[O-].[Zn+2] [ZnSO4]
Fluorescence Unit ([7]; Zn salt concentration 1 mM): 47853.41 | % of Zn Lactate Flux ([7]; Zn salt concentration 1 mM): 101.25%
